PubChem BioAssay AID1645864 (Buhrlage Lab, Dana-Farber Cancer Institute and Novartis …, 2021)
Activity calls are given as the source filed them.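 The calls were made as follows: active = maximal inhibition of USP17 at or above 30% in the confirmation dose-response, a value not among the printed readouts; inactive = the rest.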

Target: Ubiquitin carboxyl-terminal hydrolase 17-like protein 5 (Homo sapiens) (UniProt A8MUK1)
Assay: ubiquitin-specific protease 17 DUB inhibitors, concentration-effect assay, cell-free, verification of initial screening actives (AID 1645864)
Conditions: purified USP17, ubiquitin-rhodamine cleavage fluorescence, 3 h

Chain of Ubiquitin carboxyl-terminal hydrolase 17-like protein 5 (Homo sapiens) (A8MUK1 whole entry, looked up): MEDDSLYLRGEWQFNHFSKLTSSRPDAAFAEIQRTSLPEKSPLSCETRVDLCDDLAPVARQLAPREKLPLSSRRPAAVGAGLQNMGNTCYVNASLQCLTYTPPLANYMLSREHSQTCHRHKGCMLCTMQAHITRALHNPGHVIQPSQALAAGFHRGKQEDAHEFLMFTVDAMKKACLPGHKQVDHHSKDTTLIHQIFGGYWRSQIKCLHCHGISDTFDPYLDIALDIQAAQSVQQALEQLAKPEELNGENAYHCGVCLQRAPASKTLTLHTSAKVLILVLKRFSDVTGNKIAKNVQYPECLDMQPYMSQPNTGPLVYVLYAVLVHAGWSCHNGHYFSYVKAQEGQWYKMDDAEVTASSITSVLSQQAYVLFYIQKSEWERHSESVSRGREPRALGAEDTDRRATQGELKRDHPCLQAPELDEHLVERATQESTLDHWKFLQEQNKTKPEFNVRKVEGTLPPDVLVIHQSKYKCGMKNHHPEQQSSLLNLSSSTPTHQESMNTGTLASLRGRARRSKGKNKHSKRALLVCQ

Compound | IC50
O=C(Nc1ccc(F)c(Cl)c1)c1ccc(N2CCCCS2(=O)=O)cc1Cl | > 50 µM (inactive)
O=C(c1cc(-c2ccncc2)n[nH]1)N1CCC(C(=O)N2CC=C(c3ccccc3)CC2)CC1 | 28.1 µM
CC(=O)O[C@H]1[C@]2(O)C[C@]34SS[C@](CO)(C(=O)N3[C@@H]2C[C@@]12O[C@@H](C)C(C)(C)C2=O)N(C)C4=O | > 50 µM (inactive)
O=C(Nc1cccc(-c2noc(C3CCC3)n2)c1)C1CC(=O)N(c2ccccc2)C1 (stereo unspecified) | 14.1 µM
COc1ccccc1C(=O)N1CCc2[nH]c3ccc(F)cc3c2C1 | > 50 µM (inactive)
Cc1oc(-c2ccc(C(=O)NCC3COCCO3)cc2)nc1CN1CCc2ccccc21 (stereo unspecified) | > 50 µM (inactive)
O=C(CCSc1ccc(Cl)cc1)c1cccs1 | 17.1 µM
CC1CCN(S(=O)(=O)c2ccc(C(=O)Nc3ccc(S(N)(=O)=O)cc3)cc2)CC1 | 38.3 µM
O=c1c(S(=O)(=O)c2cc(F)cc(F)c2)c[nH]c2cc(Cl)ccc12 | 23.8 µM
CCc1nc(-c2cc(C(=O)N3CCOCC3)c3ccccn23)cs1 | > 50 µM (inactive)
COc1cc(N)c(Cl)cc1C(=O)OCC(=O)c1ccc2c(c1)OCCO2 | > 50 µM (inactive)
O=C(Cn1c(=O)n(CCCC(=O)N2CC=C(c3ccccc3)CC2)c(=O)c2ccccc21)NCCC1=CCCCC1 | 35 µM
CC(C)NC(=O)Cn1ccn2nc(-c3ccc(Cl)cc3)cc2c1=O | 3.85 µM
CN1C(=O)COc2cc(-c3noc(C(=O)NC4CCCCCC4)n3)ccc21 | 39.3 µM
CCCc1nc2sc3c(N(CC)CC)ncnc3c2c2c1CCC2 | > 50 µM (inactive)
Cc1cc(C)cc(-n2cnc3cc(C(=O)NCCC4=CCCCC4)ccc32)c1 | > 50 µM (inactive)
Cc1sc(NC(=O)/C=C/c2ccco2)nc1-c1ccccc1 | > 50 µM (inactive)
COc1cccc(S(=O)(=O)N2CCn3nc(C(C)(C)C)cc3C2)c1 | 38.5 µM
O=C(Nc1ncc2c(n1)-c1ccccc1CC2)C1CC1 | 20.9 µM
NC(=O)c1nc(-c2cccnc2)nc2c1[nH]c(=O)n2-c1ccc2c(c1)OCO2 | 4.01 µM
O=C1c2c(O)cccc2C2(Oc3cccc4cccc(c34)O2)C2OC12 (stereo unspecified) | 10.1 µM
O=C(NCc1ccc2c(c1)OCO2)c1nn(C23CC4CC(CC(C4)C2)C3)cc1[N+](=O)[O-] | > 50 µM (inactive)
Nc1ccc(NC(=O)c2cc3c(s2)CCC3)cc1[N+](=O)[O-] | 24.6 µM
Cc1ccc2c(c1C)NC(=O)[C@]21[C@@H]2C(=O)N(c3cc(Cl)ccc3Cl)C(=O)[C@@H]2[C@@H]2CCCN21 | > 50 µM (inactive)
CC(=O)C1=C(O)[C@]2(O)C(=O)c3c(c(C)c4ccc(C)c(O)c4c3O)C[C@H]2[C@@H](N)C1=O | 1.14 µM
COc1ccc(CCNC(=O)c2noc3c2CCc2sccc2-3)cc1OC | 22 µM

Compound | IC50
CC1Cc2ccccc2N1C(=O)Cn1c(=O)cc(O)c2ccccc21 (stereo unspecified) | > 50 µM (inactive)
O=C1CC(c2ccco2)Cc2[nH]c(=O)c(-c3nc(-c4ccc(Cl)cc4)cs3)cc21 (stereo unspecified) | > 50 µM (inactive)
O=c1ccc(-c2noc(Cc3cccc(Cl)c3)n2)c[nH]1 | > 50 µM (inactive)
O=C1N(Cc2ccc(F)cc2)CCN1c1ccc(C(F)(F)F)cn1 | > 50 µM (inactive)
O=C(NCc1ccncc1)C1CCN(c2cncnc2N2CCCCC2)CC1 | > 50 µM (inactive)
O=C(c1nnn(Cc2ccc(Cl)cc2)c1-n1cccc1)N1CCCC1 | > 50 µM (inactive)
CC(=O)CN1CC2(CCN(Cc3ccc(F)cc3)CC2)COc2ccccc2S1(=O)=O | > 50 µM (inactive)
COc1cccc(N2CCN(C(=O)C3CCN(c4nc(NC(C)=O)ns4)CC3)CC2)c1 | 29.2 µM
COc1ccc(C(=O)Nc2nc(-c3ccc4c(c3)NC(=O)CO4)c(C)s2)cc1OC | 1.23 µM
COc1cc(O)c2c(c1)C1=CC(=O)C(O)=C[C@]1(C)OC2=O | 49.4 µM
O=C(NCc1cccnc1)C1CCN(c2cnc(N3CCCCCC3)nc2)CC1 | > 50 µM (inactive)
Cc1ccc2oc(=O)c(S(=O)(=O)N3CCCCC3)cc2c1 | 16.4 µM
CC1=C[C@@H](C)CC[C@H]2O[C@@H](C3=C(O)C(=O)C(C)=C4O[C@](O)(C=C43)[C@@H](C)C[C@H](C)C1)[C@H](C)[C@@H](O)[C@H]2C | 16.1 µM
O=C(NCc1ccc(Cl)cc1)c1ccc(N2CCCS2(=O)=O)cc1 | > 50 µM (inactive)
CC(OC(=O)c1ccc2c(c1)OCCO2)C(=O)NCC1CCCCC1 (stereo unspecified) | 30.1 µM
CC(C(=O)NCc1ccc2c(c1)OCO2)N1CCN(c2ccc(O)cc2)CC1 (stereo unspecified) | 30.1 µM
O=C(NCc1ccc(F)cc1)N1CCC2(C1)Nc1cccnc1NC2=NCc1ccccc1 (stereo unspecified) | > 50 µM (inactive)
O=C(Nc1ccccc1)C1CCCN(C(=O)c2cc3ccccc3[nH]2)C1 (stereo unspecified) | 38.7 µM
O=C1c2ccccc2NC2(C(=O)Nc3ccc(Br)cc32)N1c1ccccc1 (stereo unspecified) | > 50 µM (inactive)
CC(C)N1CC2CN(Cc3ccc(Cl)cc3)CCN2Cc2ccccc21 (stereo unspecified) | > 50 µM (inactive)
CCCC[C@@H](C)/C=C(C)/C=C(\C)C(=O)NC1=C[C@](O)(/C=C/C=C/C=C/C(=O)NC2=C(O)CCC2=O)[C@@H]2O[C@@H]2C1=O | 3.1 µM
Cc1cc(C(=O)NC2(O)C(=O)c3ccccc3C2=O)n(C)n1 | 7.39 µM
CC1OC1C(=O)[C@]1(O)[C@H](C)[C@@H](O)[C@@]23O[C@@]2([C@H](O)c2c(O)cccc2C3=O)[C@H]1O (stereo partly specified) | 17.9 µM
Cc1cc(Cl)ccc1Nc1nc(Nc2cccc(F)c2)nc2nccnc12 | > 50 µM (inactive)
Cn1c(=O)c2c(ncn2CC(=O)NC2CCCc3ccccc32)n(C)c1=O (stereo unspecified) | > 50 µM (inactive)

Next, values leading:

IC50 | Compound
0.17 µM | COc1cccc2cc(C(=O)Nc3nc(-c4ccncc4)cs3)oc12
23.5 µM | COc1ccc(Cl)c(NC(=O)C2CC(=O)Nc3cc(-c4ccccc4)nn32)c1 (stereo unspecified)
34 µM | O=C(CNC(=O)c1cc2ccccc2[nH]1)Nc1ccc2c(c1)OCCO2
9.82 µM | COc1cc(NC(=O)Cc2ccccc2)ccc1NC(=O)c1cc2ccccc2o1
29.2 µM | COc1ccccc1CNC(=O)CCCn1c(=O)c2ccccc2n(CC(=O)N2CCN(c3ccccc3)CC2)c1=O
3.57 µM | COc1ccc2ncc3c(-c4ccc(C)cc4)nn(-c4ccc(F)cc4)c3c2c1
34.5 µM | Cc1cccc(-c2noc(CCn3c(=O)[nH]c4ccccc4c3=O)n2)c1
13.7 µM | CC(=O)c1sc(NC(=O)/C=C/c2ccccc2)nc1-c1ccccc1
2.23 µM | Cc1cccc(C)c1NC(=O)Cn1c(=O)n(CCCCC(=O)NCc2ccc3c(c2)OCO3)c(=O)c2ccccc21
41.4 µM | COc1ccc(-c2nc3n(n2)C(c2cccc(O)c2)C2=C(CCCC2=O)N3)cc1 (stereo unspecified)
> 50 µM (inactive) | Cc1cc(C)cc(NC(=O)CN2C(=O)CC(c3ccccc3)Sc3ccccc32)c1 (stereo unspecified)
6.17 µM | Cc1cccc(NC(=O)CSc2ccc(-n3cnc(-c4ccccc4)c3)nn2)c1
28.1 µM | COc1ccc(NS(=O)(=O)c2cc(NC(=O)CCc3nc4ccccc4s3)ccc2C)cc1
> 50 µM (inactive) | Cc1ccc2nc(CCc3ccc(NS(=O)(=O)c4cccc(Cl)c4C)cc3)[nH]c2c1
17.9 µM | CCc1ccc(-n2c(=O)c3ccccc3n(CC(=O)NCCC3=CCCCC3)c2=O)cc1
> 50 µM (inactive) | Cc1ccc(C(=O)Nc2ccc3nccnc3c2)cc1
10.2 µM | COc1ccc(C(=O)Nc2nc3n(n2)C(c2ccccc2)CC(=O)N3)cc1 (stereo unspecified)
> 50 µM (inactive) | CCCNc1cc(-c2ccccc2)nc2nc(-c3cccnc3)nn12
> 50 µM (inactive) | CCOC(=O)c1ccc(NC(=O)COc2cccc3c2CCN(CC)C3=O)cc1
> 50 µM (inactive) | Cn1c(CN2CCCCCC2)nc2cc(NC(=O)c3ccccc3)ccc21
33 µM | COc1ccc(-n2ccn3c(CCC(=O)NCc4ccc(F)cc4)nnc3c2=O)cc1
3.26 µM | Cc1nc2ccc(NC(=O)COc3ccccc3[N+](=O)[O-])cc2s1
26.9 µM | COc1ccc(NC(=O)c2ccccc2OCC(=O)Nc2ccccc2C(F)(F)F)c(C)c1

IC50 | Compound
> 50 µM (inactive) | CN1CCC(N(C)S(=O)(=O)c2ccc(NC(=O)c3cccc(OCc4ccccc4)c3)cc2)CC1
49.3 µM | O=C1CN(C(=O)COC(=O)CCCN2C(=O)c3cccc4cccc(c34)C2=O)c2ccccc2N1
> 50 µM (inactive) | CCS(=O)(=O)c1ccccc1C(=O)Nc1ccc2sc(C)nc2c1
> 50 µM (inactive) | CC(C)NS(=O)(=O)c1cccc2c(NC(=O)C(Cc3ccccc3)NC(=O)c3ccccc3)cccc12 (stereo unspecified)
40.5 µM | COc1ccc(C)cc1NC(=O)Cc1csc(NC(=O)c2ccc(=O)[nH]c2)n1
38.3 µM | O=C1CC(C(=O)Nc2ccc(F)cc2)n2nc(SCc3ccccc3)nc2N1 (stereo unspecified)
16.6 µM | COc1ccccc1NC(=O)Cn1cc(C(=O)c2ccc(C)cc2)c(=O)c2cc(Cl)ccc21
33.9 µM | Cc1ccc(C)c(NC(=O)CCc2nc(CSc3nc4ccccc4o3)no2)c1
> 50 µM (inactive) | Cc1ccccc1Cn1ccc2ccn(Cc3cccnc3)c2c1=O
2.44 µM | CCOc1ccc2cc3c(nc2c1)OC(=O)N(Cc1ccc(C)o1)C3
0.391 µM | COc1ccc(OCCn2c(C3CC(=O)N(c4cccc(C)c4)C3)nc3ccccc32)cc1 (stereo unspecified)
29.8 µM | COc1ccc(CNC(=O)c2ccccc2N2C(=O)N3CCc4c([nH]c5ccccc45)[C@@]3(C)C2=O)cc1
> 50 µM (inactive) | CCOc1ccccc1C(=O)Nc1ccc2c(c1)Sc1ncccc1C(=O)N2C
> 50 µM (inactive) | Cc1noc(NS(=O)(=O)c2ccc(NC(=O)CSc3ccc4ccccc4c3)cc2)c1C
23.1 µM | COc1ccc(CCNC(=O)CCCn2c(=O)c3ccccc3n(CC(=O)OCc3ccccc3)c2=O)cc1OC
17.7 µM | COc1ccc(NC(=O)CN2C(=O)c3ccccc3Sc3ccc(C(=O)N4CCCC4)cc32)c(OC)c1
> 50 µM (inactive) | COc1ccc(C(C(=O)NCc2ccccc2)N(C(=O)CCN2CCc3ccccc32)c2ccc(C)c(C)c2)cc1 (stereo unspecified)
> 5 µM (inactive) | COc1cc2c(cc1OC)C(COc1ccccc1OC)N(C(=O)c1ccc3ccccc3c1)CC2 (stereo unspecified)
4.83 µM | COc1cccc(NC(=O)Cn2c(COc3ccccc3)nc3ccccc32)c1
> 50 µM (inactive) | O=C(CN1CCCc2ccccc21)Nc1ccc(N2CCOCC2)cc1
45.6 µM | Cc1noc(-c2cc(=O)n(CC(=O)NCc3ccccc3)c3ccccc23)n1
19.1 µM | COc1cccc(N2C(=O)N(CC(=O)NCc3ccc(Cl)cc3)c3ccccc3S2(=O)=O)c1
